Data taken from US20260325685A1, “Radiopharmaceutical Compositions Targeting Carbonic Anhydrase IX and Uses Thereof” (RayzeBio, Inc., priority 2023, published 2026).
Read-outs that look alike come from different tables or passages of the source.

Assays:
human CA-IX = target: T1, human CA-IX (Homo sapiens, UniProt Q16790); test: Surface Plasmon Resonance (SPR) binding kinetics to recombinant human CA-IX (Biacore 8K, single-cycle kinetics, 1:1 binding model)
T1 construct: purchased Acro CA9-H82E3
Method in brief: (§1)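 Streptavidin capture, 1200-1800 RU; capture injection 180 s (CA-IX) vs 75 s (CA-XII). Analyte 100-0.39 nM, 9 conc., PBS-P+ pH 7.4 + 1% DMSO, 25° C. On 120 s, off 1200 s; ka/kd after reference subtraction and DMSO correction.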

human CA-XII = target: T2, human CA-XII (Homo sapiens, UniProt O43570); test: Surface Plasmon Resonance (SPR) binding kinetics to recombinant human CA-XII (Biacore 8K, single-cycle kinetics, 1:1 binding model)
T2 construct: purchased Creative BioMart CA12-261H
Method in brief: as §1

[1] = Chelated Metal: Lu-175; SPR, 25° C., pH 7.4; read-out: CAIX KD
[2] = Chelated Metal: Lu-175, 25° C., pH 7.4, read-out: CAXII KD
[3] = read-out: CAIX KD; Chelated Metal: Lu-175; SPR, 25° C., pH 7.4
[4] = read-out: CAXII KD, Chelated Metal: Lu-175, 25° C., pH 7.4

T2 sequence (O43570 25-354): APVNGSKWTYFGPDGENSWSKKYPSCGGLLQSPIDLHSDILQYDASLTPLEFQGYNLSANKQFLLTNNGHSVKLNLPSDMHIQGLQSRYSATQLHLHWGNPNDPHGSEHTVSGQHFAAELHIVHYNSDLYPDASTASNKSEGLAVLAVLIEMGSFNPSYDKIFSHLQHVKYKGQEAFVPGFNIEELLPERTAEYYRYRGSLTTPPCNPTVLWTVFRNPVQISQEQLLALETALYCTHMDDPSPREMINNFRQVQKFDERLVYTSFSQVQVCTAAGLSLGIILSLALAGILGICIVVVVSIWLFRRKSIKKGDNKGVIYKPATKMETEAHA

## NS(=O)(=O)c1nnc(NC(=O)C23CC(c4cn(CCNC(=O)[C@@H]5CN(C(=O)CN6CCN(CC(=O)O)CCN(CC(=O)O)CCN(CC(=O)O)CC6)CCN5C(=O)CNC(=O)C5(C(=O)O)CCN(C(=O)c6cc(C(F)(F)F)n[nH]6)CC5)nn4)(C2)C3)s1.[Lu+3] [Compound 112.11]
Human CA-IX; [1]
  Kd: 2.5 to 10 nM
Human CA-XII; [2]
  Kd: > 10 nM

## CC(CCC(=O)N[C@@H](CC(=O)N[C@@H](CC(=O)NC1(C(=O)NCCn2cc(C34CC(C(=O)Nc5nnc(S(N)(=O)=O)s5)(C3)C4)nn2)CCN(C(=O)CN2CCN(CC(=O)O)CCN(CC(=O)O)CCN(CC(=O)O)CC2)CC1)C(=O)O)C(=O)O)(c1ccc(O)cc1)c1ccc(O)cc1.[Lu+3] [Compound 117]
Human CA-IX; [3]
  Kd: 1 to 2.5 nM
Human CA-XII; [4]
  Kd: > 10 nM

## NS(=O)(=O)c1nnc(NC(=O)C23CC(c4cn(C[C@H]5CN(C(=O)CN6CCN(CC(=O)O)CCN(CC(=O)O)CCN(CC(=O)O)CC6)CCN5C(=O)[C@@H]5COCCN5C(=O)Cc5n[nH]c6ccccc56)nn4)(C2)C3)s1.[Lu+3] [Compound 114.2]
Human CA-IX; [1]
  Kd: 1 to 2.5 nM
Human CA-XII; [2]
  Kd: > 10 nM

## NS(=O)(=O)c1nnc(NC(=O)C23CCC(c4cn(CCNC(=O)[C@@H]5CN(C(=O)CN6CCN(CC(=O)O)CCN(CC(=O)O)CCN(CC(=O)O)CC6)CCN5C(=O)CNC(=O)C5(C(=O)O)CCN(C(=O)CCCc6ccc(O)cc6)CC5)nn4)(CC2)CC3)s1.[Lu+3] [Compound 107.7]
Human CA-IX; [1]
  Kd: < 1 nM
Human CA-XII; [2]
  Kd: 1 to 2.5 nM

## CC(CCCC(=O)N1CCC(C(N)=O)(C(=O)NCC(=O)N2CCN(C(=O)CN3CCN(CC(=O)O)CCN(CC(=O)O)CCN(CC(=O)O)CC3)C[C@H]2C(=O)NCCn2cc(COc3ccc4nc(S(N)(=O)=O)sc4c3)nn2)CC1)(c1ccc(O)cc1)c1ccc(O)cc1.[Lu+3] [Compound 107.49]
Human CA-IX; [1]
  Kd: < 1 nM
Human CA-XII; [2]
  Kd: > 10 nM

## N[C@@H](CC(=O)N[C@@H](CC(=O)N1CCN(C(=O)CN2CCN(CC(=O)O)CCN(CC(=O)O)CCN(CC(=O)O)CC2)C[C@H]1C(=O)NCCn1cc(C23CC(C(=O)Nc4nnc(S(N)(=O)=O)s4)(C2)C3)nn1)C(=O)O)C(=O)O.[Lu+3] [Compound 109.13]
Human CA-IX; [1]
  Kd: < 1 nM
Human CA-XII; [2]
  Kd: 2.5 to 10 nM

## CC(CCC(=O)N[C@@H](CC(=O)N[C@@H](CC(=O)N1CCN(C(=O)CN2CCN(CC(=O)O)CCN(CC(=O)O)CCN(CC(=O)O)CC2)C[C@H]1C(=O)NCCn1cc(C23CC(c4cn5nc(S(N)(=O)=O)sc5n4)(C2)C3)nn1)C(=O)O)C(=O)O)(c1ccc(O)cc1)c1ccc(O)cc1.[Lu+3] [Compound 107.27]
Human CA-IX; [1]
  Kd: < 1 nM
Human CA-XII; [2]
  Kd: < 1 nM

## CC(CCC(=O)N[C@@H](CC(=O)N[C@@H](Cc1cn([C@@H](CCCCn2cc(C34CCC(C(=O)Nc5nnc(S(N)(=O)=O)s5)(CC3)CC4)nn2)C(=O)NCCOCCOCCNC(=O)CN2CCN(CC(=O)O)CCN(CC(=O)O)CCN(CC(=O)O)CC2)nn1)C(=O)O)C(=O)O)(c1ccc(O)cc1)c1ccc(O)cc1.[Lu+3] [Compound 101]
Human CA-IX; [3]
  Kd: < 1 nM
Human CA-XII; [4]
  Kd: < 1 nM

## CC(CCCC(=O)N1CCC(C(=O)O)(C(=O)NCC(=O)N2CCN(C(=O)CN3CCN(CC(=O)O)CCN(CC(=O)O)CCN(CC(=O)O)CC3)C[C@@H]2C(=O)NCCn2cc(C34CCC(C(=O)Nc5nnc(S(N)(=O)=O)s5)(C3)C4)nn2)CC1)(c1ccc(O)cc1)c1ccc(O)cc1.[Lu+3] [Compound 107.24]
Human CA-IX; [1]
  Kd: 1 to 2.5 nM
Human CA-XII; [2]
  Kd: 2.5 to 10 nM

## NS(=O)(=O)c1nnc(NC(=O)C23CC(c4cn(CCNC(=O)[C@@H]5CN(C(=O)CN6CCN(CC(=O)O)CCN(CC(=O)O)CCN(CC(=O)O)CC6)CCN5C(=O)C[C@H](NC(=O)C[C@H](NC(=O)CCc5ccc(O)cc5)C(=O)O)C(=O)O)nn4)(C2)C3)s1.[Lu+3] [Compound 109.5]
Human CA-IX; [1]
  Kd: 1 to 2.5 nM
Human CA-XII; [2]
  Kd: 2.5 to 10 nM

## CC(CCC(=O)N[C@@H](CC(=O)N[C@@H](CC(=O)NC1(C(=O)NCCOCCOCCNC(=O)CN2CCN(CC(=O)O)CCN(CC(=O)O)CCN(CC(=O)O)CC2)CN(C(=O)Cn2cc(CCC(=O)Nc3nnc(S(N)(=O)=O)s3)nn2)C1)C(=O)O)C(=O)O)(c1ccc(O)cc1)c1ccc(O)cc1.[Lu+3] [Compound 103.3]
Human CA-IX; [1]
  Kd: 2.5 to 10 nM
Human CA-XII; [2]
  Kd: > 10 nM

## CC(CCC(=O)N[C@@H](CC(=O)N[C@@H](CC(=O)N[C@@H](CCCCn1cc(C23CC(C(=O)Nc4nnc(S(N)(=O)=O)s4)(C2)C3)nn1)C(=O)NCCOCCOCCNC(=O)CN1CCN(CC(=O)O)CCN(CC(=O)O)CCN(CC(=O)O)CC1)C(=O)O)C(=O)O)(c1ccc(O)cc1)c1ccc(O)cc1.[Lu+3] [Compound 100]
Human CA-IX; [3]
  Kd: 1 to 2.5 nM
Human CA-XII; [4]
  Kd: > 10 nM

## NS(=O)(=O)c1nnc(NC(=O)C23CC(c4cn(C[C@H]5CN(C(=O)CN6CCN(CC(=O)O)CCN(CC(=O)O)CCN(CC(=O)O)CC6)CCN5C(=O)[C@@H]5COCCN5C(=O)CCc5n[nH]c6ccccc56)nn4)(C2)C3)s1.[Lu+3] [Compound 114.3]
Human CA-IX; [1]
  Kd: 1 to 2.5 nM
Human CA-XII; [2]
  Kd: > 10 nM

## NS(=O)(=O)c1nnc(NC(=O)CCCc2nnn(CCCC[C@H](NC(=O)C[C@H](Nc3cc(NC(=O)c4n[nH]c5ccc(O)cc45)cc(C(=O)O)c3)C(=O)O)C(=O)NCCOCCOCCNC(=O)CN3CCN(CC(=O)O)CCN(CC(=O)O)CCN(CC(=O)O)CC3)c2C(=O)O)s1.[Lu+3] [Compound 102.8]
Human CA-IX; [1]
  Kd: < 1 nM
Human CA-XII; [2]
  Kd: 1 to 2.5 nM

## NS(=O)(=O)c1nnc(NC(=O)C23CC(c4cn(CCNC(=O)[C@@H]5CN(C(=O)CN6CCN(CC(=O)O)CCN(CC(=O)O)CCN(CC(=O)O)CC6)CCN5C(=O)CNC(=O)C5(C(=O)O)CCN(C(=O)Cc6n[nH]c7ccccc67)CC5)nn4)(C2)C3)s1.[Lu+3] [Compound 112.6]
Human CA-IX; [1]
  Kd: 1 to 2.5 nM
Human CA-XII; [2]
  Kd: > 10 nM

## CC(CCC(=O)N[C@@H](CC(=O)N[C@@H](CC(=O)N1CCN(C(=O)CN2CCN(CC(=O)O)CCN(CC(=O)O)CCN(CC(=O)O)CC2)C[C@H]1C(=O)NCCn1cc(C23CC(C(=O)Nc4nnc(S(N)(=O)=O)s4)(C2)C3)nn1)C(N)=O)C(N)=O)(c1ccc(O)cc1)c1ccc(O)cc1.[Lu+3] [Compound 107.47]
Human CA-IX; [1]
  Kd: 1 to 2.5 nM
Human CA-XII; [2]
  Kd: > 10 nM

## CC(CCC(=O)N1CCC[C@H]1C(=O)N[C@@H](CC(=O)N1CCN(C(=O)CN2CCN(CC(=O)O)CCN(CC(=O)O)CCN(CC(=O)O)CC2)C[C@@H]1C(=O)NCCn1cc(C23CC(C(=O)Nc4nnc(S(N)(=O)=O)s4)(C2)C3)nn1)C(=O)O)(c1ccc(O)cc1)c1ccc(O)cc1.[Lu+3] [Compound 108]
Human CA-IX; [3]
  Kd: 1 to 2.5 nM
Human CA-XII; [4]
  Kd: > 10 nM

## NS(=O)(=O)c1nnc(NC(=O)C23CC(c4cn(CCNC(=O)[C@@H]5CN(C(=O)CN6CCN(CC(=O)O)CCN(CC(=O)O)CCN(CC(=O)O)CC6)CCN5C(=O)C[C@H](NC(=O)C[C@H](NC(=O)CCCc5ccc(I)cc5)C(=O)O)C(=O)O)nn4)(C2)C3)s1.[Lu+3] [Compound 109.14]
Human CA-IX; [1]
  Kd: < 1 nM
Human CA-XII; [2]
  Kd: 2.5 to 10 nM

## CC(CCC(=O)N[C@@H](CC(=O)N[C@@H](CC(=O)N1CCN(C(=S)Nc2ccc3c(c2)OCCN(Cc2cccc(C(=O)O)n2)CCOCCOCCN(Cc2cccc(C(=O)O)n2)CCO3)C[C@H]1C(=O)NCCn1cc(C23CC(C(=O)Nc4nnc(S(N)(=O)=O)s4)(C2)C3)nn1)C(=O)O)C(=O)O)(c1ccc(O)cc1)c1ccc(O)cc1 [Compound 130]
Human CA-IX; Chelated Metal: None; SPR, 25° C., pH 7.4; read-out: CAIX KD
  Kd: < 1 nM
Human CA-IX; KD ratio CAXII/CAIX; Chelated Metal: None
  Ratio (CAXII/CAIX): *** (10 < *** ≤ 50)
Human CA-XII; Chelated Metal: None, 25° C., pH 7.4, read-out: CAXII KD
  Kd: 2.5 to 10 nM

## NC(=O)C1(C(=O)NCC(=O)N2CCN(C(=O)CN3CCN(CC(=O)O)CCN(CC(=O)O)CCN(CC(=O)O)CC3)C[C@H]2C(=O)NCCn2cc(C34CC(C(=O)Nc5nnc(S(N)(=O)=O)s5)(C3)C4)nn2)CCN(C(=O)CCn2nc(-c3ccc(O)cc3)c3ccc(O)cc32)CC1.[Lu+3] [Compound 107.52]
Human CA-IX; [1]
  Kd: 1 to 2.5 nM
Human CA-XII; [2]
  Kd: > 10 nM

## NS(=O)(=O)c1nnc(NC(=O)C23CC(c4cn(CCNC(=O)[C@@H]5CN(C(=O)CN6CCN(CC(=O)O)CCN(CC(=O)O)CCN(CC(=O)O)CC6)CCN5C(=O)CNC(=O)C5(C(=O)O)CCN(C(=O)CCCCc6ccc(O)cc6)CC5)nn4)(C2)C3)s1.[Lu+3] [Compound 112.3]
Human CA-IX; [1]
  Kd: 1 to 2.5 nM
Human CA-XII; [2]
  Kd: > 10 nM

## CCC(CC)Nc1c(F)c(S(N)(=O)=O)c(F)c(F)c1S(=O)(=O)CCOCc1cn(CCNC(=O)[C@H]2CN(C(=O)CN3CCN(CC(=O)O)CCN(CC(=O)O)CCN(CC(=O)O)CC3)CCN2C(=O)C[C@H](NC(=O)[C@@H]2COCCN2C(=O)CCCc2ccc(O)cc2)C(=O)O)nn1.[Lu+3] [Compound 107.41]
Human CA-IX; [1]
  Kd: 1 to 2.5 nM
Human CA-XII; [2]
  Kd: > 10 nM

## CC(CCC(=O)N[C@@H](CC(=O)N[C@@H](CC(=O)N1CCN(C(=O)CN2CCN(CC(=O)O)CCN(CC(=O)O)CCN(CC(=O)O)CC2)C[C@H]1C(=O)NCCn1cc(COc2ccc3nc(S(N)(=O)=O)sc3c2)nn1)C(=O)O)C(=O)O)(c1ccc(O)cc1)c1ccc(O)cc1.[Lu+3] [Compound 107.26]
Human CA-IX; [1]
  Kd: < 1 nM
Human CA-XII; [2]
  Kd: > 10 nM

## CC(CCC(=O)N[C@@H](CC(=O)N[C@@H](CCC(=O)NC1(C(=O)NCCOCCOCCNC(=O)CN2CCN(CC(=O)O)CCN(CC(=O)O)CCN(CC(=O)O)CC2)CN(C(=O)Cn2cc(CCCC(=O)Nc3nnc(S(N)(=O)=O)s3)nn2)C1)C(=O)O)C(=O)O)(c1ccc(O)cc1)c1ccc(O)cc1.[Lu+3] [Compound 103.1]
Human CA-IX; [1]
  Kd: 1 to 2.5 nM
Human CA-XII; [2]
  Kd: 2.5 to 10 nM
